The target of experiment [1] is mouse TAAR1 (Mus musculus (Mouse), UniProt Q923Y8). Nature of the experiment: Radioligand binding assay on mouse TAAR1. Particulars: read-out: Ki (μM) mouse. As for the experimental part:
(§1) For the construction of expression plasmids the coding sequences of human, rat and mouse TAAR1 were amplified from genomic DNA essentially as described by Lindemann et al.. The Expand High Fidelity PCR System (Roche Diagnostics) was used with 1.5 mM Mg^2+ and purified PCR products were cloned into pCR2.1-TOPO cloning vector (Invitrogen) following the instructions of the manufacturer. PCR products were subcloned into the pIRESneo2 vector (BD Clontech, Palo Alto, Calif.), and expression vectors were sequence verified before introduction in cell lines.
(§2) HEK293 cells (ATCC #CRL-1573) were cultured essentially as described by Lindemann et al. (2005). For the generation of stably transfected cell lines HEK293 cells were transfected with the pIRESneo2 expression plasmids containing the TAAR coding sequences (described above) with Lipofectamine 2000 (Invitrogen) according to the instructions of the manufacturer, and 24 hrs post transfection the culture medium was supplemented with 1 mg/ml G418 (Sigma, Buchs, Switzerland). After a culture period of about 10 d clones were isolated, expanded and tested for responsiveness to trace amines (all compounds purchased from Sigma) with the cAMP Biotrak Enzyme immunoassay (EIA) System (Amersham) following the non-acetylation EIA procedure provided by the manufacturer.
Radioligand Binding Assay on Mouse TAAR1
(§3) Membrane Preparation and Radioligand Binding.
(§4) HEK-293 cells stably expressing mouse TAAR1 were maintained at 37° C. and 5% CO2 in DMEM high glucose medium, containing fetal calf serum (10%, heat inactivated for 30 min at 56° C.), penicillin/streptomycin (1%), and 375 μg/ml geneticin (Gibco). Cells were released from culture flasks using trypsin/EDTA, harvested, washed twice with ice-cold PBS (without Ca^2+ and Mg^2+), pelleted at 1,000 rpm for 5 min at 4° C., frozen and stored at −80° C. Frozen pellets were suspended in 20 ml HEPES-NaOH (20 mM, pH 7.4) containing 10 mM EDTA and homogenized with a Polytron (PT 6000, Kinematica) at 14,000 rpm for 20 s. The homogenate was centrifuged at 48,000×g for 30 min at 4° C. Subsequently, the supernatant was removed and discarded, and the pellet resuspended in 20 ml HEPES-NaOH (20 mM, pH 7.4) containing 0.1 mM EDTA using the Polytron (20 s at 14,000 rpm). This procedure was repeated and the final pellet resuspended in HEPES-NaOH containing 0.1 mM EDTA and homogenized using the Polytron. Typically, aliquots of 2 ml membrane portions were stored at −80° C. With each new membrane batch the dissociation constant (Kd) was determined via a saturation curve. […] Nonspecific binding was defined as the amount of ^3[H]—(S)-4-[(ethyl-phenyl-amino)-methyl]-4,5-dihydro-oxazol-2-ylamine bound in the presence of 10 μM unlabeled ligand. All compounds were tested at a broad range of concentrations (10 pM to 10 μM) in duplicates. […] The 96 deep well plates were incubated for 1 hr at 4° C. Incubations were terminated by rapid filtration through Unifilter-96 plates (Packard Instrument Company) and glass filters GF/C (Perkin Elmer) presoaked for 1 hr in polyethylenimine (0.3%) and washed 3 times with 1 ml of cold binding buffer. After addition of 45 μl of Microscint 40 (PerkinElmer) the Unifilter-96 plate was sealed and after 1 hr the ratioactivity counted using a TopCount Microplate Scintillation Counter (Packard Instrument Company).

For experiment [2], the target named is rat TAAR1 (Rattus norvegicus (Rat), UniProt Q923Y9). Nature of the experiment: Radioligand binding assay on rat TAAR1. To be noted: read-out: Ki (μM) rat. As for the experimental part: as §1, §2
Chain of rat TAAR1 (Q923Y9 whole entry): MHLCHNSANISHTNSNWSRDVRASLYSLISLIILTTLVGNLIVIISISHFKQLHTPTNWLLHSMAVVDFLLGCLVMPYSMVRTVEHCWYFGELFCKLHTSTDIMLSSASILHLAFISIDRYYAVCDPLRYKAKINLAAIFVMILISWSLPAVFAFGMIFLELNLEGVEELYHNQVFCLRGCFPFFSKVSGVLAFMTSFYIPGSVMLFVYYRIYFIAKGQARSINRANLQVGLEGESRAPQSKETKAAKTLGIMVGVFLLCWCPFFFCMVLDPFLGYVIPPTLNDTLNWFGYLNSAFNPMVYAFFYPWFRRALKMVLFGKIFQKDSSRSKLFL
Radioligand Binding Assay on Rat TAAR1
as §3
as §4, with “rat” for “mouse”

Setting [3] is: mouse TAAR1, HEK-293 membranes, first value of cell mouse/rat.
[4] abbreviates: rat TAAR1, HEK-293 membranes, second value of cell mouse/rat.

Counter-ions that a name gives are not always drawn. Like-named read-outs stand apart in the source and are kept apart here.

Chain of mouse TAAR1 (Q923Y8 whole entry): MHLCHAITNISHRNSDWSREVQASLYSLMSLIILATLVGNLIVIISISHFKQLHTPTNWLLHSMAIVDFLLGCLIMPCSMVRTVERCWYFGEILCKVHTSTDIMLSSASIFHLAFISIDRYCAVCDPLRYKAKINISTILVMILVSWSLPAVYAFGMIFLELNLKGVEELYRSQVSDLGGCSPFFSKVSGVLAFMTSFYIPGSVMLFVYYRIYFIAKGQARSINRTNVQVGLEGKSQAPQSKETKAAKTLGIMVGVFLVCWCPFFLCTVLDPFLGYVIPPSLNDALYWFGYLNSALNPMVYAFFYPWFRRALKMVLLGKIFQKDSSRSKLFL

As usually defined, the Ki is a dissociation constant, usually derived from enzyme kinetics or from competition with a known ligand. As to `COc1ccc(C(=O)Nc2ccc(C3CCCNC3)cc2)cc1` (racemic) [Example 186, (RS)-4-Methoxy-N-(4-(piperidin-3-yl)phenyl)benzamide hydrochloride], the Ki in experiment [1] (setting [3]) was found to be 0.0486 µM; in experiment [2] (setting [4]), 0.0027 µM.

As for `C#Cc1ccc(C(=O)Nc2ccc(C3CCNC3)cc2)cc1` (racemic) [Example 54, (RS)-4-Ethynyl-N-(4-pyrrolidin-3-yl-phenyl)-benzamide hydrochloride], the inhibition constant (Ki) in experiment [1] (setting [3]) was found to be 0.0021 µM; in experiment [2], 0.0152 µM.

As to `O=C(Nc1ccc(C2CCNCC2)cc1)c1ccc(Cl)cc1` [Example 57, 4-Chloro-N-(4-piperidin-4-yl-phenyl)-benzamide hydrochloride], the inhibition constant (Ki) in experiment [1] (setting [3]) amounted to 0.0055 µM; in experiment [2] (setting [4]) it was 0.0005 µM.

Turning to `CCOc1ccc(C(=O)Nc2ccc(C3CCCNC3)cc2)cc1` (racemic) [Example 97, (RS)-4-Ethoxy-N-(4-piperidin-3-yl-phenyl)-benzamide hydrochloride], the Ki was 0.0038 µM in experiment [1] (setting [3]) and 0.0193 µM in experiment [2] (setting [4]).

Turning to `C[C@H]1CO[C@@H](c2ccc(NC(=O)c3cccc(Cl)c3)cc2)CN1` [Example 322, 3-Chloro-N-[4-((2S,5S)-5-methyl-morpholin-2-yl)-phenyl]-benzamide hydrochloride], the inhibition constant (Ki) worked out at 0.0188 µM in experiment [1] and 0.0017 µM in experiment [2].

In the case of `O=C(O)c1ccc(COc2ccc(C(=O)Nc3ccc(C4CNCCO4)cc3)cc2)cc1` (racemic) [Example 212, (RS)-4-((4-(4-(morpholin-2-yl)phenylcarbamoyl)phenoxy)methyl)benzoic acid hydrochloride], the Ki in experiment [1] (setting [3]) stood at 2.5 µM; in experiment [2] (setting [4]) it was 0.296 µM.

With `O=C(Nc1ccc(C2CCCCN2)cc1)c1ccc(Cl)cc1` (racemic) [Example 159, (RS)-4-Chloro-N-(4-piperidin-2-yl-phenyl)-benzamide hydrochloride], the Ki in experiment [1] (setting [3]) was 6.38 µM; in experiment [2] (setting [4]), 0.63 µM.

Consider `CCCc1cnc(C(=O)Nc2ccc([C@@H]3CCCNC3)cc2)cn1` [Example 278, (S)—N-(4-(Piperidin-3-yl)phenyl)-5-propylpyrazine-2-carboxamide hydrochloride], for which the Ki in experiment [1] was 0.829 µM; in experiment [2] (setting [4]), 0.0118 µM.

With `COC(C(=O)Nc1ccc(C2CCNC2)cc1)c1ccc(Cl)cc1` (racemic) [Example 60, (RS)-2-(4-Chloro-phenyl)-2-methoxy-N—((RS)-4-pyrrolidin-3-yl-phenyl)-acetamide], the Ki in experiment [1] (setting [3]) came out at 2.83 µM; in experiment [2] (setting [4]) it was 0.0457 µM.

Turning to `O=C(Nc1ccc(C2CNCCO2)cc1)c1ccc(Cl)nc1` (racemic) [Example 193, (RS)-6-chloro-N-(4-(morpholin-2-yl)phenyl)nicotinamide hydrochloride], the Ki in experiment [1] (setting [3]) came to 0.0406 µM; in experiment [2], 0.0034 µM.

Consider `COc1cc(C(=O)Nc2ccc(C3CCNC3)cc2)nc2ccccc12` (racemic) [Example 90, (RS)-4-Methoxy-quinoline-2-carboxylic acid (4-pyrrolidin-3-yl-phenyl)-amide hydrochloride], for which the figures for the Ki in experiment [1] (setting [3]) and in experiment [2] (setting [4]) were 0.0192 µM and 0.0101 µM, respectively.

Take `Cc1nc(-c2cnccn2)sc1C(=O)Nc1ccc(C2CNCCO2)cc1` (racemic) [Example 298, (RS)-4-Methyl-N-(4-(morpholin-2-yl)phenyl)-2-(pyrazin-2-yl)thiazole-5-carboxamide hydrochloride]: the inhibition constant Ki in experiment [1] is 0.0506 µM; in experiment [2] (setting [4]) it was 0.0143 µM.

As to `O=C(Nc1ccc([C@H]2CCCNC2)cc1)c1ccc(Cl)c(Cl)c1` [Example 150, 3,4-Dichloro-N—((R)-4-piperidin-3-yl-phenyl)-benzamide hydrochloride], the inhibitory constant (Ki) in experiment [1] worked out at 0.002 µM; in experiment [2] (setting [4]), 0.0004 µM.

Take `O=C(Nc1ccc([C@@H]2CCCNC2)cc1)c1cnc(OCC(F)(F)F)cn1` [Example 250, (S)—N-(4-(Piperidin-3-yl)phenyl)-5-(2,2,2-trifluoroethoxy)pyrazine-2-carboxamide hydrochloride]: the Ki in experiment [1] (setting [3]) turned out to be 0.288 µM; in experiment [2] (setting [4]), 0.0056 µM.

Regarding `O=C(Nc1ccc(C2CNCCO2)cc1)c1ccc(Oc2ccc(Cl)cc2)cc1` (racemic) [Example 206, (RS)-4-(4-Chlorophenoxy)-N-(4-(morpholin-2-yl)phenyl)benzamide hydrochloride], the Ki in experiment [1] (setting [3]) is 0.0026 µM; in experiment [2] (setting [4]), 0.0011 µM.

Regarding `COc1ccc(C(=O)Nc2ccc(C3CCNC3)cc2)nc1` (racemic) [Example 94, (RS)-5-Methoxy-pyridine-2-carboxylic acid (4-pyrrolidin-3-yl-phenyl)-amide hydrochloride], the Ki in experiment [1] amounted to 0.0601 µM; in experiment [2] (setting [4]), 0.379 µM.

With `O=C(Nc1ccc(CCC2CCCNC2)cc1)c1ccc(Cl)cn1` (racemic) [Example 118, (RS)-5-Chloro-pyridine-2-carboxylic acid [4-(2-piperidin-3-yl-ethyl)-phenyl]-amide hydrochloride], the Ki came out at 0.13 µM in experiment [1] (setting [3]) and 0.0081 µM in experiment [2] (setting [4]).

Turning to `CSc1ccc(C(=O)Nc2ccc([C@@H]3CNCCO3)cc2)cc1` [Example 266, (R)-4-(Methylthio)-N-(4-(morpholin-2-yl)phenyl)benzamide hydrochloride], the Ki worked out at 0.0163 µM in experiment [1] (mouse TAAR1, HEK-293 membranes, first value of cell mouse/rat, hydrochloride) and 0.0012 µM in experiment [2] (hydrochloride).

Turning to `O=C(Nc1ccc(C2CCNC2)cc1)c1ccc(Cl)cc1F` (racemic) [Example 77, (RS)-4-Chloro-2-fluoro-N-(4-pyrrolidin-3-yl-phenyl)-benzamide hydrochloride], the Ki in experiment [1] (setting [3]) amounted to 0.0017 µM; in experiment [2] (setting [4]), 0.0238 µM.

Turning to `O=C(Nc1ccc(C2CCNC2)cc1)OC1CCC(F)(F)CC1` (racemic) [Example 45, (RS)-(4-Pyrrolidin-3-yl-phenyl)-carbamic acid 4,4-difluoro-cyclohexyl ester], the Ki in experiment [1] (setting [3]) was found to be 0.0131 µM; in experiment [2] (setting [4]), 0.0077 µM.

On to `O=C(Nc1ccc(C2CCCNC2)cc1)c1ccccc1` (racemic) [Example 184, (RS)—N-(4-(piperidin-3-yl)phenyl)benzamide hydrochloride], for which the Ki in experiment [1] (setting [3]) turned out to be 0.153 µM.

Take `CC(C(=O)Nc1ccc(C2CCNC2)cc1)c1ccccc1` (racemic) [Example 25, (RS)-2-Phenyl-N—((RS)-4-pyrrolidin-3-yl-phenyl)-propionamide]: in experiment [1] (setting [3]), the Ki was determined as 0.32 µM.

The values are drawn from US9452980B2, “Substituted benzamides” (Hoffmann-La Roche Inc., priority 2009, dated 2016).
